Each structure is given as a SMILES string.

For this assay, the target named is human PD-L1 / Human PD-1 (Homo sapiens (Human), UniProt Q9NZQ7). The assay is described as follows: Enzyme-Linked Immunosorbent Assay (ELISA), PD-1/PD-L1 binding. Conditions: plates coated with human PD-L1, biotinylated human PD-1 added. How it is done: 96 Well plates were coated with 1 μg/mL of human PD-L1 (obtained from R&D) in PBS overnight at 4′° C. The wells were then blocked with 2% BSA in PBS (W/V) with 0.05% TWEEN-20 for 1 hour at 37′° C. The plates were washed 3 times with PBS/0.05% TWEEN-20 and the compounds were serial diluted (1:5) in dilution medium and added to the ELISA plates. Human PD-1 and biotin 0.3 μg/mL (ACRO Biosystems) were added and incubated for 1 hour at 37° C. then washed 3 times with PBS/0.05% TWEEN-20. A second block was performed with 2% BSA in PBS (WNV)/0.05% TWEEN-20 for 10 min at 37° C. and the plates were washed 3 times with PBS/0.05% TWEEN-20. Streptavidin-HIRP was added for 1 hour at 37° C. then the plates were washed 3 times with PBS/0.05% TWEEN-20. TMB substrate was added and reacted for 20 min at 37° C. A stop solution (2 N aqueous H2SO4) was added. The absorbance was read at 450 nm using a micro-plate spectrophotometer.
Sequence of human PD-L1 / Human PD-1 (Q9NZQ7 19-239): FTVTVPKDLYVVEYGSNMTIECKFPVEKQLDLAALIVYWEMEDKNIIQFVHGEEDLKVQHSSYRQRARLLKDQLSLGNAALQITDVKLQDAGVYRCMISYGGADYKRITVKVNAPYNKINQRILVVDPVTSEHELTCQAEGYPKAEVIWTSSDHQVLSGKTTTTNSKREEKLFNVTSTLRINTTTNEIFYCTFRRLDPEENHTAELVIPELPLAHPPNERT
Background: In an ELISA, binding on a coated surface is turned into a signal by an enzyme label.
What is called IC50 is the concentration needed to halve the response being measured. A low value points to inhibition by little substance. As to `COc1cc(-c2cccc(-c3cccc(-c4cc(F)c(CNCCCC(=O)O)c(OC)c4)c3C)c2C)cc(F)c1CNCCCC(=O)O` [Compd 1.063, 4,4′-(((3,3′″-difluoro-5,5′″-dimethoxy-2′,2″-dimethyl-[1,1′:3′,1″:3″,1′″-quaterphenyl]-4,4′″-diyl)bis(methylene))bis(azanediyl))dibutyric acid], the IC50 was < 1 µM. As to `Cc1c(OCCCN2[C@H](C)CC[C@H]2C)cccc1-c1cccc(-c2ccc3c(c2)CC(C(=O)O)NC3)c1C` (some centres unmarked) [Compd 1.064], the IC50 was in the range of 1 to 10 µM. `COc1cc(CNCCCC(=O)O)cc(-c2cccc(-c3cccc(OCCCN4[C@H](C)CC[C@H]4C)c3C)c2C)c1` [Compd 1.065] showed an IC50 of 1 to 10 µM. In the case of `COc1cc(-c2cccc(-c3cccc(OCCCN4[C@H](C)CC[C@H]4C)c3C)c2C)ccc1CNCCCC(=O)O` [Compd 1.066] it was < 1 µM; in that of `COc1cc(-c2cccc(-c3cccc(OCCCN4[C@H](C)CC[C@H]4C)c3C)c2C)cc(F)c1CNCCCC(=O)O` [Compd 1.067], < 1 µM; in that of `Cc1c(OCCCN2[C@H](C)CC[C@H]2C)cccc1-c1cccc(-c2ccc3c(c2)CC(C(=O)O)NC3)c1C` (some centres unmarked) [Compd 1.068], < 1 µM. To `Cc1c(OCCCN2[C@H](C)CC[C@H]2C)cccc1-c1cccc(-c2ccc3c(c2)CC(CO)NC3)c1C` (some centres unmarked) [Compd 1.069] belongs < 1 µM; to `Cc1c(OCCCN2CCC(F)CC2)cccc1-c1cccc(-c2ccc(CN3CCCC[C@H]3C(=O)O)cc2)c1C` [Compd 1.071], 1 to 10 µM. Compound `COC(=O)[C@@H]1CCCCN1Cc1ccc(-c2cccc(-c3cccc(OCCCN4CCC(F)CC4)c3C)c2C)cc1` [Compd 1.072] displayed an IC50 of 1 to 10 µM. In the case of `COc1cc(-c2cccc(-c3cccc(OCCCN4[C@H](C)CC[C@H]4C)c3C)c2C)ccc1CN(C)C` [Compd 1.073] it was < 1 µM. To `Cc1c(OCCCN2[C@H](C)CC[C@H]2C)cccc1-c1cccc(-c2ccc(CN(C)C)c(OC(C)C)c2)c1C` [Compd 1.074] belongs < 1 µM; to `CCOc1cc(-c2cccc(-c3cccc(OCCCN4[C@H](C)CC[C@H]4C)c3C)c2C)ccc1CN(C)C` [Compd 1.075], < 1 µM. In the case of `C=Cc1c(-c2ccc3c(c2)CCNC3)cccc1-c1cccc(OCCCN2CCC2(C)C)c1C` [Compd 1.076, 6-(3′-(3-(2,2-dimethylazetidin-1-yl)propoxy)-2′-methyl-2-vinyl-[1,1′-biphenyl]-3-yl)-1,2,3,4-tetrahydroisoquinoline], the IC50 was < 1 µM. Take `Cc1c(OCCCN2CCC(F)CC2)cccc1-c1cccc(-c2ccc(CN)cc2)c1C` [Compd 1.077]: the IC50 is < 1 µM. To `COc1cc(-c2cccc(-c3cccc(OCCCN4CCC(F)CC4)c3C)c2C)cc(F)c1CN(C)C` [Compd 1.078] belongs < 1 µM; to `COc1cc(-c2cccc(-c3cccc(OCCCN4CCC(F)CC4)c3C)c2C)cc(OC)c1CN(C)C` [Compd 1.079], 1 to 10 µM. To `Cc1c(OCCCN2CCC(F)CC2)cccc1-c1cccc(-c2ccc3c(c2)OCCNC3)c1C` [Compd 1.080] belongs < 1 µM; to `Cc1c(OCCCN2CCC(F)CC2)cccc1-c1cccc(-c2ccc(CN(C)C)c(Cl)c2)c1C` [Compd 1.081], < 1 µM. In the case of `Cc1c(OCCCN2CCC(F)CC2)cccc1-c1cccc(-c2ccc(CN)cc2F)c1C` [Compd 1.082] it was < 1 µM; in that of `Cc1cc(-c2cccc(-c3cccc(OCCCN4CCC(F)CC4)c3C)c2C)ccc1CN(C)C` [Compd 1.083], < 1 µM. Compound `Cc1c(OCCCN2CCC(F)CC2)cccc1-c1cccc(-c2ccc(CN(C)C)c(C(F)(F)F)c2)c1C` [Compd 1.084] registered an IC50 of 1 to 10 µM. In the case of `Cc1c(OCCCN2CCC2(C)C)cccc1-c1cccc(-c2ccc3c(c2)CCNC3)c1C(F)(F)F` [Compd 1.085] it was 1 to 10 µM. In the case of `Cc1c(OCCCN2CCC(F)CC2)cccc1-c1cccc(-c2ccc(CN)c(F)c2)c1C` [Compd 1.086] it was < 1 µM; in that of `Cc1c(OCCCN2CCC(F)CC2)cccc1-c1cccc(-c2ccc3c(c2C)CCNC3)c1C` [Compd 1.087], 1 to 10 µM.

`COc1c(-c2ccc3c(c2)CCNC3)cccc1-c1cccc(OCCCN2CCC2(C)C)c1C` [Compd 1.088, 6-(3′-(3-(2,2-dimethylazetidin-1-yl)propoxy)-2-methoxy-2′-methyl-[1,1′-biphenyl]-3-yl)-1,2,3,4-tetrahydroisoquinoline]: the IC50 is < 1 µM. To `Cc1c(OCCCN2CCC2(C)C)cccc1-c1cccc(-c2ccc3c(c2)CCNC3)c1Cl` [Compd 1.089, 6-(3′-(3-(2,2-dimethylazetidin-1-yl)propoxy)-2-chloro-2′-methyl-[1,1′-biphenyl]-3-yl)-1,2,3,4-tetrahydroisoquinoline] belongs < 1 µM; to `Cc1c(OCCCN2CCC2(C)C)cccc1-c1cccc(-c2ccc3c(c2)CCNC3)c1F` [Compd 1.090, 6-(3′-(3-(2,2-dimethylazetidin-1-yl)propoxy)-2-fluoro-2′-methyl-[1,1′-biphenyl]-3-yl)-1,2,3,4-tetrahydroisoquinoline], < 1 µM. In the case of `Cc1c(-c2ccc3c(c2)CCNC3)cccc1-c1cccc(OCCCN2[C@H](C)CC[C@H]2C)c1F` [Compd 1.091] it was < 1 µM. In the case of `Cc1c(-c2ccc3c(c2)CCNC3)cccc1-c1cccc(OCCCN2[C@H](C)CC[C@H]2C)c1Cl` [Compd 1.092] it was < 1 µM; in that of `COc1cc(CN(C)C)ccc1-c1cccc(-c2cccc(OCCCN3CCC(F)CC3)c2C)c1C` [Compd 1.093], 1 to 10 µM; in that of `COc1cc(-c2cccc(-c3cccc(OCCCN4CCC(F)CC4)c3C)c2C)ccc1CN(C)C` [Compd 1.094], < 1 µM. `Cc1c(OCCCN2CCC(F)CC2)cccc1-c1cccc(-c2ccc(CN(C)C)cc2Cl)c1C` [Compd 1.095]: the IC50 is 1 to 10 µM. In the case of `Cc1c(OCCCN2CCC(F)CC2)cccc1-c1cccc(-c2ccc(CN)cc2Cl)c1C` [Compd 1.096] it was 1 to 10 µM. In the case of `Cc1c(OCCCN2[C@H](C)CC[C@H]2C)cccc1-c1cccc(-c2ccc(CNCCC(=O)O)cc2)c1C` [Compd 1.097] it was < 1 µM; in that of `Cc1c(OCCCN2[C@H](C)CC[C@H]2C)cccc1-c1cccc(-c2ccc([C@H](C)N)cc2)c1C` [Compd 1.098], < 1 µM; in that of `Cc1c(OCCCN2[C@H](C)CC[C@H]2C)cccc1-c1cccc(-c2ccc([C@@H](C)N)cc2)c1C` [Compd 1.099], < 1 µM.

`Cc1c(OCCCN2[C@H](C)CC[C@H]2C)cccc1-c1cccc(-c2ccc(CNCCCC(=O)O)cc2)c1C` [Compd 1.100]: the IC50 was < 1 µM. Take `Cc1c(OCCCN2[C@H](C)CC[C@H]2C)cccc1-c1cccc(-c2ccc(CNCC(=O)O)cc2)c1C` [Compd 1.101]: the IC50 is < 1 µM.

On to `Cc1c(OCCCN2CCC2(C)C)cccc1-c1cccc(-c2ccc3c(c2)CCNC3)c1C#N` [Compd 1.102, 3′-(3-(2,2-dimethylazetidin-1-yl)propoxy)-2′-methyl-3-(1,2,3,4-tetrahydroisoquinolin-6-yl)-[1,1′-biphenyl]-2-carbonitrile], for which the IC50 is < 1 µM. On to `Cc1c(OCCCN2CCC2(C)C)cccc1-c1cccc(-c2ccc3c(c2)CCNC3)c1` [Compd 1.103, 6-(3′-(3-(2,2-dimethylazetidin-1-yl)propoxy)-2′-methyl-[1,1′-biphenyl]-3-yl)-1,2,3,4-tetrahydroisoquinoline], for which the IC50 was 1 to 10 µM. Take `Cc1c(OCCCN2CCC(C)(F)CC2)cccc1-c1cccc(-c2ccc3c(c2)CCNC3)c1C` [Compd 1.104]: the IC50 is < 1 µM.

On to `Cc1c(OCCCN2CCCC2(C)C)cccc1-c1cccc(-c2ccc3c(c2)CCNC3)c1C` [Compd 1.105], for which the IC50 was < 1 µM. Regarding `CCOC(=O)CN1CCc2cc(-c3cccc(-c4cccc(OCCCN5[C@H](C)CC[C@H]5C)c4C)c3C)ccc2C1` [Compd 1.106], the IC50 fell in the range of 1 to 10 µM.

On to `Cc1c(OCCCN2[C@H](C)CC[C@H]2C)cccc1-c1cccc(-c2ccc3c(c2)CCN(CCO)C3)c1C` [Compd 1.107], for which the IC50 was < 1 µM. To `Cc1c(OCCCN2[C@H](C)CC[C@H]2C)cccc1-c1cccc(-c2ccc3c(c2)CCN(CC(=O)O)C3)c1C` [Compd 1.108] belongs < 1 µM. Regarding `Cc1c(OCCCN2CC3(CC(O)C3)C2)cccc1-c1cccc(-c2ccc3c(c2)CCNC3)c1C` [Compd 1.109], the IC50 is < 1 µM. In the case of `Cc1c(OCCCN2CCC(F)CC2)cccc1-c1cccc(-c2ccc3c(c2)CCNC3)c1C` [Compd 1.110] it was < 1 µM. In the case of `Cc1c(OCCCN2CCC(O)CC2)cccc1-c1cccc(-c2ccc3c(c2)CCNC3)c1C` [Compd 1.111] it was < 1 µM. To `Cc1c(OCCCN2CC(O)C2)cccc1-c1cccc(-c2ccc3c(c2)CCNC3)c1C` [Compd 1.112] belongs < 1 µM. Regarding `Cc1c(OCCCN2[C@H](C)CC[C@H]2C)cccc1-c1cccc(-c2ccc(C(C)N)cc2)c1C` (some centres unmarked) [Compd 1.113], the IC50 was < 1 µM. Regarding `Cc1c(OCCCN2[C@H](C)CC[C@H]2C)cccc1-c1cccc(-c2ccc3c(c2)CCNC3)c1C` [Compd 1.114], the IC50 was < 1 µM.

For the compound `COc1cccc(-c2cccc(-c3ccc4c(c3)CCNC4)c2C)c1C` [Compd 1.115, 6-(3′-methoxy-2,2′-dimethyl-[1,1′-biphenyl]-3-yl)-1,2,3,4-tetrahydroisoquinoline], the IC50 lay within 1 to 10 µM. To `COc1cccc(-c2cccc(-c3ccc4c(c3)CCNC4)c2C)c1` [Compd 1.116, 6-(3′-methoxy-2-methyl-[1,1′-biphenyl]-3-yl)-1,2,3,4-tetrahydroisoquinoline] belongs 1 to 10 µM.
